By MIC90 is commonly meant an inhibitory concentration at the 90% level, which refers to growth in some studies and to a panel of isolates in others. Usually MIC99 stands for the lowest concentration that inhibits either 99% of growth or 99% of the strains tested, depending on the study. By IC50 is commonly meant the concentration that gives 50% inhibition. As usually defined, the IC90 is the concentration at which the effect reaches the 90% level.

9 compounds from US20140303152A1, “BENZOTHIAZINETHIONE DERIVATIVES AND PREPARATION METHODS AND USES THEREOF” (SICHUAN UNIVERSITY, priority 2011, published 2014) can be followed below.

Converted amounts (≈) assume the structure as drawn. “And” between values parts separate entries of the source, which are not always exact repeats. Equal values may be shown once. Read-outs that look alike come from different tables or passages of the source.

Data set [1] deals with mycobacterium tuberculosis H37Rv. In words: In vitro inhibition test on Mycobacterium tuberculosis (H37Rv). It is filed as cell-based. The following applies: for MIC90 / MIC99: Mycobacterium tuberculosis; for MIC99: 264 h; for inhibitory effects on mycobacterium tuberculosis (H37Rv): result in words.
The next data set deals with 293 cells. Put plainly: Cytotoxicity test (MTT method). The class given is cell-based. The following applies: Homo sapiens. (In general: Formazan colour is commonly taken as a measure of viable cells.)
Data set [2] deals with Mycobacterium tuberculosis (H37Ra). Put plainly: In vitro inhibition test on Mycobacterium tuberculosis (H37Ra). It is filed as cell-based.
A short description of data set [3]: Acute toxicity test of compound If, blood biochemical detection. Also on record: Blood urea nitrogen / Total cholesterol / Creatine kinase / Creatinine / Blood glucose / Triglyceride / Total bilirubin / Alanine aminotransferase / Aspartate aminotransferase: unit not given here. The class given is in vivo. The procedure: • 1. Experimental method, 1) If, intraperitoneal suspension, at dose of 2.5 g/kg; 2) adjuvant: 1% sodium carboxymethylcellulose (CMC-Na), 1% tween-80; 3) 10 BABL/C male and female mice, 6-8 weeks old, and weight of 20±2 g. The 10 mice were randomly divided into 2 groups, 5 mice for each group, and a solvent control group is set. Single intraperitoneal injection of 2.5 g/kg was given to the (1) drug group and (2) solvent control group within 24 h; physical signs, behavioral activities, glandular secretion, breath, stool, genitals, death and other poisoning manifestations of the mice were constantly observed every 4 h after administration, and the mice were killed after observation for 24 h, 5) blood was taken from eyeballs, and then the mice were killed, 800 μl whole blood was taken, centrifuged at 1300 r/min for 15 min, and 200 μl supernatant serum was taken for blood biochemical detection, including the following evaluation indicators: aspartate aminotransferase (AST), alanine aminotransferase (ALT), creatine kinase (CK), alkaline phosphatase (ALP), blood urea nitrogen (BUN), total protein (TP), albumin (Alb), blood glucose (GLU), total bilirubin (T-BIL), creatinine (Crea), total cholesterol (Chol) and triglyceride (TG), with 12 items in total. • 2.

For data set [4], the system named is Bacillus Calmette Guerin (BCG). It is filed as in vivo, BABL/C mice. Conditions: for Colony count results after treatment for 28 days (spleens and lungs): BCG-infected mice, FIG. 1; for Lung pathological examination, anti-BCG infection treatment effects: HE staining, FIG. 2.
The mark [5] stands for this setting: H37Rv, generally observed 11 days after inoculation, read-out: MIC99.
Where [6] appears, read: H37Rv, generally observed 5-7 days after inoculation, read-out: MIC90.
The mark [7] stands for this setting: HEK293, 293 cells, MTT, 48 h, read-out: IC50.
Where [8] appears, read: serum of individual mice 6-10, If 2.5 g/kg i.p., 24 h.
[9] abbreviates: high dose group, 75 mg/kg i.p. once every day.
Where [10] appears, read: low dose group, 25 mg/kg i.p. once every day.

In data set [1] (H37RV), `O=[N+]([O-])c1cc([N+](=O)[O-])c2sc(N3CCCCC3)nc(=S)c2c1` [Ie, 6,8-dinitro-2-(piperidine-1-alkyl)-4H-benzo[e][1,3]thiazine-4-thione] yielded an MIC90 of 1 µg/mL (≈ 2.84 µM) and an MIC99 of 4 µg/mL (≈ 11.4 µM). In the data set with 293 cells (HEK293, 48 h), this compound came in with an IC50 of more than 500 µM.
For the compound `Fc1cc2c(=S)nc(Nc3ccc(Br)cn3)sc2c(F)c1F` [Ia, 2-(5-bromopyridine-2-amino)-6,7,8-trifluoro-4H-benzo[e][1,3]thiazine-4-thione], the MIC99 in data set [1] (setting [5]) is 16 µg/mL (≈ 39.6 µM). Also, in data set [1] (setting [6]), the MIC90 worked out at 8 µg/mL (≈ 19.8 µM). Further, the IC50 in the data set on 293 cells (setting [7]) was more than 500 µM.
In data set [1] (H37RV), `CCNc1nc(=S)c2cc([N+](=O)[O-])cc([N+](=O)[O-])c2s1` [Ic, 2-(ethylamino)-6,8-dinitro-4H-benzo[e][1,3]thiazine-4-thione] came in with an MIC90 of 2 µg/mL (≈ 6.4 µM) and an MIC99 of 8 µg/mL (≈ 25.6 µM). In the data set with 293 cells (HEK293, 48 h), this compound returned an IC50 of more than 500 µM.
On to `O=[N+]([O-])c1cc(C(F)(F)F)cc2c(=S)nc(N3CCC4(CC3)OCCO4)sc12` [Compound If, 8-nitro-2-(1,4-dio-8-aza[4.5]dec-8-yl)-6-(trifluoromethyl)-4H-benzo[e][1,3]thiazine-4-thione], for which the MIC99 in data set [1] (setting [5]) is 0.0312 µg/mL (≈ 0.0721 µM). Further, in data set [1] (setting [6]), the MIC90 is 0.0312 µg/mL (≈ 0.0721 µM). Moreover, the “inhibitory effects on mycobacterium tuberculosis (H37Rv)” value (“inhibitory effects” below) in data set [1] is recorded as “equivalent to or even better than those of isoniazide”. In data set [2], this compound showed an IC90 of 0.1 µM. In data set [3] (2.5 g/kg single intraperitoneal injection, mice, observation 24 h), the acute toxicity entry was “no obvious acute toxicity”. Moreover, in data set [3] (setting [8]), the Alanine aminotransferase is 10 and 16 (2×) and 12 and 11; the Albumin was 31.5 and 34.0 and 33.1 and 33.4 and 32.2; the Alkaline phosphatase was 166 and 134 and 156 and 175 and 165; the Aspartate aminotransferase was 145 and 148 and 149 and 156 and 169. Besides, in data set [3] (setting [8]), the Blood glucose is 6.3 and 4.3 and 4.9 and 4.5 and 5.1; the Blood urea nitrogen is 6.7 and 5.5 and 6.3 and 8.9 and 7.9; the Creatine kinase is 67 and 54 and 65 and 66 and 74; the Creatinine is −12 (2×) and −6 and −15 and −4. Further, in data set [3] (setting [8]), the Total bilirubin is −0.6 (2×) and −0.5 and −1.2 and −0.4; the Total cholesterol was 3.35 and 3.21 and 3.34 and 3.53 and 3.14; the Total protein was 70.1 and 65.6 and 66.7 and 73.8 and 65.7; the Triglyceride is 2.10 and 1.80 and 2.53 and 2.17 and 2.24. Besides, in data set [4] (setting [9]), the “Colony count results after treatment for 28 days (spleens and lungs)” value is reported as “slightly inferior to those of isoniazide, but obviously superior to those of the model group”; the “Lung pathological examination, anti-BCG infection treatment effects” value was “equivalent to those of the isoniazide (positive) control group”. Moreover, in data set [4] (setting [10]), the “Colony count results after treatment for 28 days (spleens and lungs)” value was “inhibitory effects on BCG growth of mouse spleens and lungs”; the “Lung pathological examination, anti-BCG infection treatment effects” value is “obviously superior to those of the solvent group, but inferior to the isoniazide (positive) control group and the If high dose group”. In the data set with 293 cells (setting [7]), the IC50 was more than 500 µM.
In data set [1] (H37RV), `CNc1nc(=S)c2cc([N+](=O)[O-])cc([N+](=O)[O-])c2s1` [Id, 2-(methylamino)-6,8-dinitro-4H-benzo[e][1,3]thiazine-4-thione] showed an MIC90 of 2 µg/mL (≈ 6.7 µM) and an MIC99 of 4 µg/mL (≈ 13.4 µM). In the data set on 293 cells (HEK293, 48 h), the IC50 was more than 500 µM.
Turning to `O=[N+]([O-])c1cc(C(F)(F)F)cc2c(=S)nc(N3CCOCC3)sc12` [Ih, 2-morpholinyl-8-nitro-6-(trifluoromethyl)-4H-benzo[e][1,3]thiazine-4-thione], the MIC99 in data set [1] (setting [5]) was 0.0312 µg/mL (≈ 0.0828 µM). Also, the MIC90 in data set [1] (setting [6]) came out at 0.0312 µg/mL (≈ 0.0828 µM). Besides, in data set [1], the “inhibitory effects” value was “equivalent to or even better than those of isoniazide”. For the same compound, the IC90 in data set [2] was found to be 0.8 µM. Besides, the IC50 in the data set with 293 cells (setting [7]) is more than 500 µM.
For `NNC(=O)c1ccncc1` [Isoniazide, reference compound], the MIC99 in data set [1] (setting [5]) turned out to be 0.0625 µg/mL (≈ 0.456 µM). Moreover, in data set [1] (setting [6]), the MIC90 is 0.0625 µg/mL (≈ 0.456 µM). Further, the IC90 in data set [2] was determined as 0.8 µM.
Regarding `O=[N+]([O-])c1cc([N+](=O)[O-])c2sc(N3CCOCC3)nc(=S)c2c1` [Ig, 2-morpholinyl-6,8-dinitro-4H-benzo[e][1,3]thiazine-4-thione], in data set [1] (H37RV), the MIC90 was 0.0625 µg/mL (≈ 0.176 µM) and the MIC99 stood at 0.125 µg/mL (≈ 0.353 µM). In data set [1], the “inhibitory effects” value is “equivalent to or even better than those of isoniazide”. Besides, the IC90 in data set [2] was determined as 0.8 µM. Further, in the data set on 293 cells (HEK293, 48 h), the IC50 was more than 500 µM.
Take `O=[N+]([O-])c1cc([N+](=O)[O-])c2sc(Nc3ccc(C(F)(F)F)cc3)nc(=S)c2c1` [Ib, 6,8-dinitro-2-(4-(trifluoromethyl)anilino)-4H-benzo[e][1,3]thiazine-4-thione]: in data set [1] (H37RV), the MIC90 turned out to be 4 µg/mL (≈ 9.34 µM) and the MIC99 is 16 µg/mL (≈ 37.4 µM). In the data set with 293 cells (HEK293, 48 h), this compound gave a 50% inhibitory concentration (IC50) of more than 500 µM.
